Assays:
[1] = test system: mouse macrophage cell line (PU 518); assay: Macrophage inhibition assay: IgA-α1AT complex-stimulated release of lysosomal enzymes; assay type: cell-based; conditions: Table 5, head prints no unit, b70 says all values of the results tables are in µMoles, concentration needed to prevent 50% release of β-glucoromidase
Procedure: A mouse macrophage cell line (PU 518) was stimulated to release lysosomal enzymes by the addition of purified human IgA-α1AT complex. The degree to which this release was then inhibited by the peptides or other drugs was investigated, with the degree of inhibition being indicative of activity; the concentration of peptide or other test drugs giving 50% inhibition being recorded. Briefly the method was as follows:
25µl of peptide or drug was double diluted in […] + 10% foetal calf serum (FCS) in a sterile tissue culture 96 well plate. 25µl of IgA-α1AT complex in RPMI 1640 +10% FCS at about 0.2mg/ml was then added to all wells. 50µl of cells at a concentration of 2 x 10^6 cells/ml in RPMI 1640 + 10% FCS was then added to each well.
Control wells of cells alone and cells + IgA-α1AT complex were also prepared. The plate was then gently mixed and incubated overnight (16hr) at 37°C in a 4% CO2 atmosphere. Plates were then centrifuged at 1200 rpm for 10 minutes in a bench top centrifuge.
40µl of supernatant was then taken from each well and added to a 96 well polystyrene assay plate, to which was added 40µl of 160mM acetate buffer (pH 4.3) containing 2mM phenolphthalein-β-D-glucuronic acid. To obtain a standard curve, dilutions of phenolphthalein in acetate buffer from 100-5µg/ml were also added to separate wells in the assay plate.
The plates were then incubated at 37°C for 4 hours before 150µl of 0.2M glycine/NaOH buffer (pH 10.6) containing 0.2M NaCl was added to stop the reaction.
Plates were then shaken for 3 minutes before the optical density at 570nm was read on a plate reader, and the amount of β-D-glucuronic acid released from the cells calculated. The concentration of peptide or drug giving 50% inhibition of release was then noted.
The results for the macrophage inhibition assays are expressed as the concentration needed to prevent 50% release of β-glucoromidase.

[2] = test system: alternative complement (C3) pathway; assay: Inhibition of C3-activation: preventing IgA-α1AT complex from activating the alternative complement pathway, rabbit erythrocyte haemolysis read-out; assay type: biochemical, human; conditions: Table 5; minimum concentration needed to prevent C3 activation
[3] = test system: IgA-α1AT complex; assay: HPLC analysis of in vitro dissociation of purified IgA-α1AT complex; assay type: biochemical, human; conditions: Table 5; minimum concentration giving complex : free IgA ratio at 20% (base-line 14%); 90 minutes at 37°C; >500µM = no complex dissociation at highest concentration tested
Procedure: The ability of the peptides of the invention to dissociate purified IgA-α1AT complex in vitro was tested as described below. The anti-rheumatic drug D-penicillamine and other synthetic peptides were used as controls. […] The sample was monitored at wavelength 206nm at a flow rate of 1ml/minute with phosphate buffer (0.1M) pH 7.1. […] They represent the ability of the peptides to dissociate the IgA-α1AT complex in vitro. In these experiments, the base-lines level comprises a complex : free IgA ratio of 14% . The minimum concentration of peptide taken to produce a positive dissociation effect is that which results in a complex: free IgA ratio at 20%. In the results tables, all the peptide values are expressed in µMoles.

In the case of N[C@@H](CS)C(=O)O [Cysteine], the IC50 [1] is reported as 500 µM, the “C' minimum” value [2] is reported as 16 µM and the “HPLC minimum” value [3] is reported as 250 µM.

— patent EP0614464B1, “PEPTIDES AND ANTIBODIES FOR TREATMENT OF RHEUMATOID ARTHRITIS” (PEPTIDE THERAPEUTICS LIMITED, priority 1991, dated 1993)
